Measured values from patent US20210395327A1, “Growth Hormone-Releasing Hormone Antagonists and Uses Thereof” (United States Government As Represented By The Department …, priority 2019, published 2021).
Entries after “also recorded” stand apart in the source; their conditions may differ. Non-standard residues stand in square brackets, D forms with d. Residues, ends and D or L forms follow the SMILES beside them. *: point of attachment. Phenylacetyl(2,3,4,5,6-F5) = O=C(Cc1c(F)c(F)c(F)c(F)c1F)*; Phe(F5) = N[C@@H](Cc1c(F)c(F)c(F)c(F)c1F)C(=O)O; Phe(4-Cl) = N[C@@H](Cc1ccc(Cl)cc1)C(=O)O; hArg = N=C(N)NCCCC[C@H](N)C(=O)O; 12Ado = NCCCCCCCCCCCC(=O)O; Nle = CCCC[C@H](N)C(=O)O; Abu = CC[C@H](N)C(=O)O

Legend:
[1] = system: lung cancer HCC827 xenograft; test: Xenograft tumor growth in nude mice, HCC827; type: in vivo; details: for % Inhibition: vs control
Protocol: The peptides' activity was compared with GHRH antagonist MIA-602. All statistical analyzses were performed from comparing GHRA antagonists to non-treated tumor (control).
Peptides and chemicals. GHRH antagonists MIA-602 and AVR-GHRH antagonists (see Table 2 above) were synthesized by solid phase methods and purified by HPLC. The peptides were dissolved in DMSO and further diluted in 10% 1,2-propanediol. The final concentration of peptides was 50 µg/ml in 10% 1,2-propanediol containing 0.1% of DMSO.
Cell culture. Human cancer cell lines including pancreatic (PANC-1 and CFPAC-1), lung (HCC827 and H460), stomach (NCI-N87), prostate (PC3), brest (MX-1 and HCC-1806), colorectal (HT-29), and ovarian (SK-OV-3 and OVCAR-3) were obtained from the American Type Culture Collection (ATCC) and cultured at 37° C. in a humidified 95% air/5% CO2 atmosphere in the medium recommended by ATCC.
Xenograft models of human cancers in nude mice. Female athymic (NCr nu/nu) nude mice, 5- to 6-weeks-old, obtained from the Envigo labs (Tampa, Fla.), were housed in laminar airflow cabinets under pathogen-free conditions with a 12-h light/12-h dark schedule, and were fed autoclaved standard chow and water. To generate mice with xenografted tumors, tumor xenografts were initiated by subcutaneous (s.c.) injection of 107 human cancer cells into female nude mice. After about 4 weeks the resulting tumors were dissected and collected after removing necrosis tissues. The tumors were then cut into particles with size of 3 mm3 and transplanted s.c. by trocar needle into experimental animals. When tumors grew to the size of 50-60 mm3 (by volume), mice were randomized into groups and treated daily for 4-8 weeks by subcutaneous administration of 5 μg of GHRH antagonists MIA-602 or AVR-compounds (2-10 μg as indicated), or vehicle solutions (0.1% DMSO in 10% 1,2-propanediol) respectively. Tumor sizes were measured weekly.
Statistical analysis. One-way ANOVA followed by Bonferroni comparison were performed. Data are expressed as Mean±SEM. To determine statistical significance between animal groups, two-tailed Student's t-test was conducted. Differences were considered significant when p<0.05.
Results. […] FIG. 1A-N represents in vivo inhibition of tumor growth during the treatment with GHRH antagonist MIA-602 and selected AVR antagonists in nude mice xenografted with various human tumors including pancreatic cancer PANC-1 (FIG. 1A) and CFPAC-1 (FIG. 1I); lung cancer HCC827 (FIGS. 1B, C) and H460 (FIG. 1H); stomach cancer N87 (FIGS. 1D-F); colon cancer HT-29 (FIG. 1G); breast cancer MX-1 and HCC-1806 (FIGS. 1J, K); ovarian cancer SK-OV-3 and OVACAR-3 (FIGS. 1 L, M) and prostate cancer PC3 (FIG. 1N). See also Table 5.

[2] = system: GH release from rat pituitary cells; test: Inhibition of GH release from rat pituitary cells in vitro (GH ELISA); type: cell-based; details: for Relative GH release: analogs 20 nM, then with 1 nM GHRH(1-29)NH2 for 30 minutes, Control = 1.00
Protocol: In vitro assessment of the antagonistic activity of GHRH analogs. Rats were decapitated and pituitaries were collected in pre-warmed HBSS (Hanks' Balanced Salt Solution). Tissue was then cut into small pieces and digested in HBSS medium containing 3% BSA, 50 μg/ml gentamycin and 0.5% collagenase for 50 minutes at 37° C. Cells were further dispersed by pipetting and passed through a 100 μm cell strainer with the addition of DMEM containing 50 μg/ml gentamycin. 10% horse serum and 2.5% FBS (growth medium). Cells were harvested at 475×g for 2 minutes, resuspended in fresh growth medium and seeded onto poly-D-lysine-coated 24-well plates (7 pituitaries/plate). Cells were left to recover for 4 days. Growth medium was then replaced with serum-free DMEM for 4 hours and GHRH analogs (at concentration of 20 nM) were added in DMEM containing 0.1% BSA for 30 minutes. Cells were replenished with medium containing the same concentration of the analogs and 1 nM GHRH(1-29)NH2 for 30 minutes. Medium from this step was collected, centrifuged at 800 g for 3 minutes and GH concentration was determined by ELISA (ALPCO Diagnostics, Mill Valley, Calif.) according to the manufacturer's instruction.

[3] = target: T1, membrane GHRH-receptors on human anterior pituitary cells (Homo sapiens, UniProt Q02643); test: Receptor binding, displacement of 125I-[His1,Nle27]-hGH-RH(1-32)NH2 on human pituitary membranes; details: for IC50: membrane receptors on human anterior pituitary cells, mean of two to three determinations, read-out: IC50
T1 construct: Human pituitary was purchased from the National Hormone and Peptide Program; tissue National Hormone and Peptide Program; host or cells: human pituitary (membrane fractions)
T1 sequence (Q02643 23-423): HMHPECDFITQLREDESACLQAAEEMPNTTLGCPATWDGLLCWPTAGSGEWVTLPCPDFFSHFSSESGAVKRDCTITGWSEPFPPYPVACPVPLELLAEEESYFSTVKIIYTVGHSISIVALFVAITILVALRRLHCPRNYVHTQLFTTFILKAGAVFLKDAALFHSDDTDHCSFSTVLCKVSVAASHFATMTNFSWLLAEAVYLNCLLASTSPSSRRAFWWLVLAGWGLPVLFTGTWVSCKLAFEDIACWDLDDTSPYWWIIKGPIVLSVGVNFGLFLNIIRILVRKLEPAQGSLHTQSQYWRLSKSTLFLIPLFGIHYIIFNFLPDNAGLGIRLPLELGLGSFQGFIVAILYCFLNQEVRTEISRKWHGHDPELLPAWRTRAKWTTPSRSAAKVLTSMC
Outline: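 Membrane fractions from human pituitary; peptides displace 125I-[His1,Nle27]-hGH-RH(1-32)NH2. IC50 is the dose giving 50% inhibition of specific binding, from duplicate tubes. Relative affinity is the ratio of test IC50 to hGH-RH(1-29)NH2 IC50.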

[4] = Table 4B, Lung Ca HCC827, 7 weeks, 5 μg/day s.c.
[5] = Table 4C, Lung Ca HCC827, 8 weeks, 2.5 μg/day s.c.
[6] = Table 4C, Lung Ca HCC827, 8 weeks, 5 μg/day s.c.
[7] = Table 4C, Lung Ca HCC827, 8 weeks, 10 μg/day s.c.

Row | Compound | Tumor Growth % [1, 4] | % Inhibition [1, 4] | Tumor Growth % [1, 5] | % Inhibition [1, 5] | Tumor Growth % [1, 6] | % Inhibition [1, 6] | Tumor Growth % [1, 7] | % Inhibition [1, 7] | Relative GH release [2] | inhibitory effects on the release of GH, compared with MIA-602 (in words) ([2]; rat pituitary cells in vitro, 20 nM) | binding affinity to membrane receptors of human pituitary cells (in words) ([3]; competitive binding, human pituitary membrane fractions) | IC50 [3]
1 | CCCC[C@H](NC(=O)[C@@H](NC(=O)[C@H](CC(=O)O)NC(=O)[C@H](CCC(N)=O)NC(=O)[C@H](CC(C)C)NC(=O)[C@H](CC(C)C)NC(=O)[C@H](CCCCN)NC(=O)[C@H](CCCNC(=N)N)NC(=O)[C@H](C)NC(=O)[C@H](CO)NC(=O)[C@H](CC(C)C)NC(=O)[C@H](CCC(N)=O)NC(=O)[C@H](CC)NC(=O)[C@H](CC(C)C)NC(=O)[C@@H](NC(=O)[C@H](CCCCN)NC(=O)[C@H](CCCNC(=N)N)NC(=O)[C@H](Cc1c(F)c(F)c(F)c(F)c1F)NC(=O)[C@H](CCCCNC(=N)N)NC(=O)[C@H](C)NC(=O)[C@@H](NC(=O)[C@H](Cc1ccc(Cl)cc1)NC(=O)[C@@H](NC(=O)[C@H](C)NC(=O)[C@H](CC(=O)O)NC(=O)[C@@H](CCCNC(=N)N)NC(=O)[C@H](Cc1ccc(O)cc1)NC(=O)CCCCCCCCCCCNC(=O)Cc1c(F)c(F)c(F)c(F)c1F)[C@@H](C)CC)[C@@H](C)O)C(C)C)[C@@H](C)CC)C(=O)N[C@H](CCCNC(=N)N)C(=O)N[C@@H](CCCCNC(=N)N)C(=O)NCCCCCCCCCCCC(N)=O [AVR-353, 5FPhAC-Ada-Tyr-DArg-Asp-Ala-Ile-Cpa-Thr-Ala-Har-5FPhe-Arg-Lys-Val-Leu-Abu-Gln-Leu-Ser-Ala-Arg-Lys-Leu-Leu-Gln-Asp-Ile-Nle-DArg-Har-Ada-NH2] ({Phenylacetyl(2,3,4,5,6-F5)-12Ado}-Y[dR]DAI[Phe(4-Cl)]TA[hArg][Phe(F5)]RKVL[Abu]QLSARKLLQDI[Nle][dR][hArg][12Ado]-NH2) | 380.3% | 71.0% | 545.65% | 35.1% | 420.79% | 50.0% | 359.16% | 57.3% | 0.65 ± 0.08 | higher inhibitory effects than MIA-602 | higher binding affinity in comparison to MIA-602; also recorded: highest binding affinities | 0.11 nM
2 | CCCC[C@H](NC(=O)[C@@H](NC(=O)[C@H](CC(=O)O)NC(=O)[C@H](CCC(N)=O)NC(=O)[C@H](CC(C)C)NC(=O)[C@H](CC(C)C)NC(=O)[C@H](CCCCN)NC(=O)[C@H](CCCNC(=N)N)NC(=O)[C@H](C)NC(=O)[C@H](CO)NC(=O)[C@H](CC(C)C)NC(=O)[C@H](CCC(N)=O)NC(=O)[C@H](CC)NC(=O)[C@H](CC(C)C)NC(=O)[C@@H](NC(=O)[C@H](CCCCN)NC(=O)[C@H](CCCNC(=N)N)NC(=O)[C@H](Cc1ccc(OC)cc1)NC(=O)[C@H](CCCCNC(=N)N)NC(=O)[C@H](CC(N)=O)NC(=O)[C@@H](NC(=O)[C@H](Cc1ccc(Cl)cc1)NC(=O)[C@@H](NC(=O)[C@H](C)NC(=O)[C@H](CC(=O)O)NC(=O)[C@@H](CCCNC(=N)N)NC(=O)[C@H](Cc1ccc(O)cc1)NC(=O)CCCCCCCCCCCNC(=O)Cc1c(F)c(F)c(F)c(F)c1F)[C@@H](C)CC)[C@@H](C)O)C(C)C)[C@@H](C)CC)C(=O)N[C@H](CCCNC(=N)N)C(=O)N[C@@H](CCCCNC(=N)N)C(=O)NCCCCCCCCCCCC(N)=O [AVR-333, 5FPhAC-Ada-Tyr-DArg-Asp-Ala-Ile-Cpa-Thr-Asn-Har-Tyr(Me)-Arg-Lys-Val-Leu-Abu-Gln-Leu-Ser-Ala-Arg-Lys-Leu-Leu-Gln-Asp-Ile-Nle-DArg-Har-Ada-NH2] ({Phenylacetyl(2,3,4,5,6-F5)-12Ado}-Y[dR]DAI[Phe(4-Cl)]TN[hArg]Y(Me)RKVL[Abu]QLSARKLLQDI[Nle][dR][hArg][12Ado]-NH2) | 407.5% | 68.9% |  |  |  |  |  |  | 0.88 ± 0.03 |  |  | 0.3 nM
